Experiment [1] has as its system Normal plasma pool. In words: APTT assay (Roche APTT LS on Roche cobas t 711 coagulation analyzer), spiked normal plasma pool. To be noted: for effect of spiked amount on clotting time of APTT assay: increasing concentrations, normal plasma sample; for APTT result: normal plasma pool.
The subject of experiment [2] is Normal plasma pool. The experiment is described as follows: Thrombin time assay (Roche Thrombin Time Reagent on Roche cobas t 711), spiked normal plasma pool. To be noted: for effect of spiked amount on clotting time of thrombin time (TT) assay: increasing concentrations, normal plasma sample; for TT result: normal plasma pool.
The subject of experiment [3] is pathological plasma pool. In words: Thrombin time assay (Roche Thrombin Time Reagent on Roche cobas t 711), spiked pathological plasma pool. To be noted: for TT result: pathological plasma pool. The procedure:
[The source words this procedure for another target and reports this target under the same test.] A TT result of 19 s would result in a conjugated bilirubin concentration x=4.95 mg/dL. The calibration curve shown above was generated by spiking increasing amount of bilic to a normal plasma sample.

Take `C=CC1=C(C)/C(=C/c2[nH]c(Cc3[nH]c(/C=C4\NC(=O)C(C)=C4C=C)c(C)c3CCC(=O)O)c(CCC(=O)O)c2C)NC1=O` [unconjugated bilirubin]: the “effect of spiked amount on clotting time of APTT assay” value (“effect … of APTT assay” below) in experiment [1] was “influences APTT results only marginally”. Further, the APTT result in experiment [1] (spiked at 6.60 mg/dL) stood at 30.70 s; in experiment [1] (spiked at 13.20 mg/dL), 31.10 s; in experiment [1] (spiked at 19.80 mg/dL) it was 30.80 s; in experiment [1] (spiked at 26.40 mg/dL) it was 30.80 s; in experiment [1] (spiked at 33.00 mg/dL), 30.70 s; in experiment [1] (spiked at 39.60 mg/dL), 30.50 s. For the same compound, the APTT result in experiment [1] (spiked at 46.20 mg/dL) worked out at 30.50 s; in experiment [1] (spiked at 52.80 mg/dL), 30.30 s; in experiment [1] (spiked at 59.40 mg/dL) it was 30.60 s; in experiment [1] (spiked at 66.00 mg/dL), 30.30 s. Besides, in experiment [2], the “effect of spiked amount on clotting time of thrombin time (TT) assay” value (from here on “effect of spiked amount … (TT) assay”) was “does not seem to influence thrombin time results”. Also, the TT result in experiment [2] (spiked at 6.60 mg/dL) was found to be 16.30 s; in experiment [2] (spiked at 13.20 mg/dL), 16.30 s; in experiment [2] (spiked at 19.80 mg/dL) it was 16.00 s; in experiment [2] (spiked at 26.40 mg/dL), 16.40 s; in experiment [2] (spiked at 33.00 mg/dL), 16.40 s; in experiment [2] (spiked at 39.60 mg/dL), 16.40 s. In addition, the TT result in experiment [2] (spiked at 46.20 mg/dL) was determined as 16.40 s; in experiment [2] (spiked at 52.80 mg/dL), 16.60 s; in experiment [2] (spiked at 59.40 mg/dL), 16.50 s; in experiment [2] (spiked at 66.00 mg/dL), 16.60 s.

Consider hemoglobin, for which the “effect of spiked amount … (TT) assay” value in experiment [3] (increasing concentrations, pathological plasma sample) was “systematically shortened”. For the same compound, the TT result came out at 38.50 s in experiment [3] (spiked at 130.00 mg/dL); 38.10 s in experiment [3] (spiked at 260.00 mg/dL); 37.60 s in experiment [3] (spiked at 390.00 mg/dL); 36.70 s in experiment [3] (spiked at 520.00 mg/dL); 36.30 s in experiment [3] (spiked at 650.00 mg/dL); 35.70 s in experiment [3] (spiked at 780.00 mg/dL). The TT result in experiment [3] (spiked at 910.00 mg/dL) is on record as 35.00 s; in experiment [3] (spiked at 1040.00 mg/dL), 34.40 s; in experiment [3] (spiked at 1170.00 mg/dL) it was 33.60 s; in experiment [3] (spiked at 1300.00 mg/dL), 33.40 s. Further, the “effect … of APTT assay” value in experiment [1] is given as “systematically shortened”. Also, the APTT result amounted to 28.40 s in experiment [1] (spiked at 130.00 mg/dL); 28.10 s in experiment [1] (spiked at 260.00 mg/dL); 27.90 s in experiment [1] (spiked at 390.00 mg/dL); 27.60 s in experiment [1] (spiked at 520.00 mg/dL); 27.40 s in experiment [1] (spiked at 650.00 mg/dL); 27.20 s in experiment [1] (spiked at 780.00 mg/dL). The APTT result was found to be 26.70 s in experiment [1] (spiked at 910.00 mg/dL), 26.30 s in experiment [1] (spiked at 1040.00 mg/dL), 26.20 s in experiment [1] (spiked at 1170.00 mg/dL) and 25.70 s in experiment [1] (spiked at 1300.00 mg/dL).

conjugated bilirubin: the “effect … of APTT assay” value in experiment [1] is “systematically prolonged”. The APTT result is recorded as 27.90 s in experiment [1] (spiked at 2.00 mg/dL); 28.40 s in experiment [1] (spiked at 4.00 mg/dL); 29.00 s in experiment [1] (spiked at 6.00 mg/dL); 29.70 s in experiment [1] (spiked at 8.00 mg/dL); 30.00 s in experiment [1] (spiked at 9.00 mg/dL); 30.50 s in experiment [1] (spiked at 10.00 mg/dL). Besides, the APTT result in experiment [1] (spiked at 11.00 mg/dL) came to 30.70 s; in experiment [1] (spiked at 12.00 mg/dL), 31.10 s; in experiment [1] (spiked at 13.00 mg/dL), 31.50 s; in experiment [1] (spiked at 15.00 mg/dL), 32.20 s. Also, the “effect of spiked amount … (TT) assay” value in experiment [2] is on record as “systematically prolonged”. Also, the TT result in experiment [2] (spiked at 1.00 mg/dL) is reported as 16.70 s; in experiment [2] (spiked at 2.00 mg/dL) it was 17.40 s; in experiment [2] (spiked at 3.00 mg/dL) it was 17.80 s; in experiment [2] (spiked at 4.00 mg/dL), 18.50 s; in experiment [2] (spiked at 5.00 mg/dL), 19.20 s; in experiment [2] (spiked at 6.00 mg/dL), 19.50 s. For the same compound, the TT result in experiment [2] (spiked at 7.00 mg/dL) was 20.00 s; in experiment [2] (spiked at 8.00 mg/dL) it was 20.50 s; in experiment [2] (spiked at 9.00 mg/dL) it was 21.30 s; in experiment [2] (spiked at 10.00 mg/dL), 21.70 s.

The values are drawn from patent publication US20190276872A1, “DETERMINATION OF INTERFERENTS IN A SAMPLE” (Roche Diagnostics Operations, Inc., priority 2016, published 2019).
